# Measured values reported in patent US20240246977A1, “DEGRADATION OF BRUTON'S TYROSINE KINASE (BTK) BY CONJUGATION OF BTK INHIBITORS WITH E3 LIGASE LIGAND AND METHOD OF USE” (BeiGene Switzerland GmbH, priority 2021, published 2024).
# Experiments:
# HEK-293 cells = experiment: HEK-293 cytotoxicity detection (CellTiter-Glo); type: cell-based; conditions: Homo sapiens, 72 h, 72 h incubation, CellTiter-Glo luminescence, read-out: HEK293
# Summary of the method: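 HEK-293 cells exposed 72 h to 8 compounds doses (4-fold dilutions, top stock 5 mM at 500×) in 0.2% DMSO. Viability by CellTiter-Glo luminescence; inhibition normalised to DMSO high control and low control, IC50 from four-parameter curve fit.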
# BTK = BTK (Homo sapiens, UniProt Q06187); experiment: BTK cell degradation in TMD-8 cells, HTRF assay; type: cell-based; parameters: endogenous in cells; host or cells: TMD-8 cells; conditions: 6 h treatment, IC50 (DC50) of BTK degradation
# Summary of the method: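 BTK levels read by HTRF in lysates of TMD-8 cells exposed to compounds for 6 h, eight concentrations at 6-fold steps in 0.2% DMSO. Percent degradation versus DMSO and low controls was fitted with a four-parameter equation to give DC50; Dmax is maximal degradation.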
# BTK, sequence (Q06187 whole entry): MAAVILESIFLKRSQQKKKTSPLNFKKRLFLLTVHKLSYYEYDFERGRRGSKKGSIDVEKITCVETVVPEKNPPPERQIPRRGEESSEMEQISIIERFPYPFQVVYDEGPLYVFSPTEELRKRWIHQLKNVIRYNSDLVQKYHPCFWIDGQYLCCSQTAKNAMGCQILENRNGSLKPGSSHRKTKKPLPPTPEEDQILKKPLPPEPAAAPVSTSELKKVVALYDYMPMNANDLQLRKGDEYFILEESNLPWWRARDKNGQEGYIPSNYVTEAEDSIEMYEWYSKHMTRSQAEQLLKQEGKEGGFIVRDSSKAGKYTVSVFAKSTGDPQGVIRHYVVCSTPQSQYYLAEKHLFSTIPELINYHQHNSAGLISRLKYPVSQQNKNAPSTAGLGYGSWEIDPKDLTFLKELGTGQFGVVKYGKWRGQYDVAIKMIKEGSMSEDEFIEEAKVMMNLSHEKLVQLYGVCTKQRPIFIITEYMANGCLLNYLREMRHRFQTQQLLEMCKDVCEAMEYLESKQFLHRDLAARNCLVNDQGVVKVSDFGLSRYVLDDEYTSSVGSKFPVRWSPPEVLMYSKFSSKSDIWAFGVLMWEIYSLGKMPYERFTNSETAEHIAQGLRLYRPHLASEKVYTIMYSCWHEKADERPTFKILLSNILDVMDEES
Compound,DC50 (BTK),IC50 (HEK-293 cells)
"Cc1c(C(=O)Nc2cn(C)cn2)ccc(-c2nn3c(c2C(N)=O)Nc2ccc(N4CCN(C(=O)C5CCN(c6ccc(N7CCC(=O)NC7=O)cc6)CC5)CC4)cc2CC3)c1F [Example B91, 7-(4-(1-(4-(2,4-dioxotetrahydropyrimidin-1(2H)-yl)phenyl)piperidine-4-carbonyl)piperazin-1-yl)-2-(2-fluoro-3-methyl-4-((1-methyl-1H-imidazol-4-yl)carbamoyl)phenyl)-9,10-dihydro-4H-benzo[d]pyrazolo[1,5-a][1,3]diazepine-3-arboxamide]",1.36 nM,> 10000 nM
"Cc1c(C(=O)Nc2cn(C)cn2)ccc(-c2nn3c(c2C(N)=O)Nc2ccc(N4CCN(C[C@H]5CCN(c6ccc(N7CCC(=O)NC7=O)cc6)C5)CC4)cc2CC3)c1F [Example B92, (R)-7-(4-((1-(4-(2,4-dioxotetrahydropyrimidin-1(2H)-yl)phenyl)pyrrolidin-3-yl)methyl)piperazin-1-yl)-2-(2-fluoro-3-methyl-4-((1-methyl-1H-imidazol-4-yl)carbamoyl)phenyl)-9,10-dihydro-4H-benzo[d]pyrazolo[1,5-a][1,3]diazepine-3-carboxamide]",1.86 nM,> 10000 nM
"Cc1c(C(=O)Nc2ncnn2C)ccc(-c2nn3c(c2C(N)=O)Nc2ccc(N4CCN(CC5CCN(c6ccc(N7CCC(=O)NC7=O)cc6)CC5)CC4)cc2CC3)c1F [Example B93, 7-(4-((1-(4-(2,4-dioxotetrahydropyrimidin-1(2H)-yl)phenyl)piperidin-4-yl)methyl)piperazin-1-yl)-2-(2-fluoro-3-methyl-4-((1-methyl-1H-1,2,4-triazol-5-yl)carbamoyl)phenyl)-9,10-dihydro-4H-benzo[d]pyrazolo[1,5-a][1,3]diazepine-3-carboxamide]",3.77 nM,> 10000 nM
"Cc1c(C(=O)Nc2cscn2)ccc(-c2nn3c(c2C(N)=O)Nc2ccc(N4CCN(CC5CCN(c6ccc(N7CCC(=O)NC7=O)cc6)CC5)CC4)cc2CC3)c1F [Example B94, 7-(4-((1-(4-(2,4-dioxotetrahydropyrimidin-1(2H)-yl)phenyl)piperidin-4-yl)methyl)piperazin-1-yl)-2-(2-fluoro-3-methyl-4-(thiazol-4-ylcarbamoyl)phenyl)-9,10-dihydro-4H-benzo[d]pyrazolo[1,5-a][1,3]diazepine-3-carboxamide]",0.378 nM,> 10000 nM
"Cc1c(C(=O)Nc2cscn2)ccc(-c2nn3c(c2C(N)=O)Nc2ccc(N4CCN(CCc5cccc6c5oc(=O)n6C5CCC(=O)NC5=O)CC4)cc2CC3)c1F (stereo not shown) [Example B96, 7-(4-(2-(3-(2,6-dioxopiperidin-3-yl)-2-oxo-2,3-dihydrobenzo[d]oxazol-7-yl)ethyl)piperazin-1-yl)-2-(2-fluoro-3-methyl-4-(thiazol-4-ylcarbamoyl)phenyl)-9,10-dihydro-4H-benzo[d]pyrazolo[1,5-a][1,3]diazepine-3-carboxamide]",0.586 nM,116 nM
"Cc1c(C(=O)Nc2cscn2)ccc(-c2nn3c(c2C(N)=O)Nc2ccc(N4CCN(CC5CN(c6ccc(N7CCC(=O)NC7=O)cc6)C5)CC4)cc2CC3)c1F [Example B97, 7-(4-((1-(4-(2,4-dioxotetrahydropyrimidin-1(2H)-yl)phenyl)azetidin-3-yl)methyl)piperazin-1-yl)-2-(2-fluoro-3-methyl-4-(thiazol-4-ylcarbamoyl)phenyl)-9,10-dihydro-4H-benzo[d]pyrazolo[1,5-a][1,3]diazepine-3-carboxamide]",2.11 nM,> 10000 nM
"Cc1c(C(=O)Nc2cscn2)ccc(-c2nn3c(c2C(N)=O)Nc2ccc(N4CCN(CC5CCN(c6ccc(CN7CCC(=O)NC7=O)cc6)CC5)CC4)cc2CC3)c1F [Example B98, 7-(4-((1-(4-((2,4-dioxotetrahydropyrimidin-1(2H)-yl)methyl)phenyl)piperidin-4-yl)methyl)piperazin-1-yl)-2-(2-fluoro-3-methyl-4-(thiazol-4-ylcarbamoyl)phenyl)-9,10-dihydro-4H-benzo[d]pyrazolo[1,5-a][1,3]diazepine-3-carboxamide]",1.1 nM,> 10000 nM
"Cc1c(C(=O)Nc2cscn2)ccc(-c2nn3c(c2C(N)=O)Nc2ccc(N4CCN(CC5CCN(c6cccc(CN7CCC(=O)NC7=O)c6)CC5)CC4)cc2CC3)c1F [Example B99, 7-(4-((1-(3-((2,4-dioxotetrahydropyrimidin-1(2H)-yl)methyl)phenyl)piperidin-4-yl)methyl)piperazin-1-yl)-2-(2-fluoro-3-methyl-4-(thiazol-4-ylcarbamoyl)phenyl)-9,10-dihydro-4H-benzo[d]pyrazolo[1,5-a][1,3]diazepine-3-carboxamide]",2.72 nM,> 10000 nM
"Cc1c(C(=O)Nc2cscn2)ccc(-c2nn3c(c2C(N)=O)Nc2ccc(N4CCN(C5CC(c6ccc(N[C@@H]7CCC(=O)NC7=O)cc6)C5)CC4)cc2CC3)c1F (stereo partly drawn) [Example B100, (R)-7-(4-(3-(4-((2,6-dioxopiperidin-3-yl)amino)phenyl)cyclobutyl)piperazin-1-yl)-2-(2-fluoro-3-methyl-4-(thiazol-4-ylcarbamoyl)phenyl)-9,10-dihydro-4H-benzo[d]pyrazolo[1,5-a][1,3]diazepine-3-carboxamide]",2.14 nM,34.1 nM
"Cc1c(C(=O)Nc2cscn2)ccc(-c2nn3c(c2C(N)=O)Nc2ccc(N4CCN(C5CC(c6ccc(N[C@H]7CCC(=O)NC7=O)cc6)C5)CC4)cc2CC3)c1F (stereo partly drawn) [Example B101, (S)-7-(4-(3-(4-((2,6-dioxopiperidin-3-yl)amino)phenyl)cyclobutyl)piperazin-1-yl)-2-(2-fluoro-3-methyl-4-(thiazol-4-ylcarbamoyl)phenyl)-9,10-dihydro-4H-benzo[d]pyrazolo[1,5-a][1,3]diazepine-3-carboxamide]",2.42 nM,32.3 nM
"Cc1c(C(=O)Nc2cscn2)ccc(-c2nn3c(c2C(N)=O)Nc2ccc(N4CCN(C(=O)C5CCN(c6ccc(N7CCC(=O)NC7=O)cc6)CC5)CC4)cc2CC3)c1F [Example B102, 7-(4-(1-(4-(2,4-dioxotetrahydropyrimidin-1(2H)-yl)phenyl)piperidine-4-carbonyl)piperazin-1-yl)-2-(2-fluoro-3-methyl-4-(thiazol-4-ylcarbamoyl)phenyl)-9,10-dihydro-4H-benzo[d]pyrazolo[1,5-a][1,3]diazepine-3-carboxamide]",1.1 nM,> 10000 nM
"Cc1c(C(=O)Nc2cscn2)ccc(-c2nn3c(c2C(N)=O)Nc2ccc(N4CCN(C[C@H]5CCN(c6ccc(N7CCC(=O)NC7=O)cc6)C5)CC4)cc2CC3)c1F [Example B103, (R)-7-(4-((1-(4-(2,4-dioxotetrahydropyrimidin-1(2H)-yl)phenyl)pyrrolidin-3-yl)methyl)piperazin-1-yl)-2-(2-fluoro-3-methyl-4-(thiazol-4-ylcarbamoyl)phenyl)-9,10-dihydro-4H-benzo[d]pyrazolo[1,5-a][1,3]diazepine-3-carboxamide]",3.3 nM,> 10000 nM

# Continued, in another order:
DC50 (BTK),Compound,IC50 (HEK-293 cells)
0.758 nM,"COc1ccccc1C(=O)NCc1ccc(-c2nn3c(c2C(N)=O)Nc2ccc(N4CCN(CC5CCN(c6ccc(N7CCC(=O)NC7=O)cc6)CC5)CC4)cc2CC3)cc1 [Example C1, 7-(4-((1-(4-(2,4-dioxotetrahydropyrimidin-1(2H)-yl)phenyl)piperidin-4-yl)methyl)piperazin-1-yl)-2-(4-((2-methoxybenzamido)methyl)phenyl)-9,10-dihydro-4H-benzo[d]pyrazolo[1,5-a][1,3]diazepine-3-carboxamide]",> 10000 nM
0.52 nM,"COc1ccc(C)cc1C(=O)NCc1ccc(-c2nn3c(c2C(N)=O)Nc2ccc(N4CCN(CC5CCN(c6ccc(N7CCC(=O)NC7=O)cc6)CC5)CC4)cc2CC3)cc1 [Example C2, 7-(4-((1-(4-(2,4-dioxotetrahydropyrimidin-1(2H)-yl)phenyl)piperidin-4-yl)methyl)piperazin-1-yl)-2-(4-((2-methoxy-5-methylbenzamido)methyl)phenyl)-9,10-dihydro-4H-benzo[d]pyrazolo[1,5-a][1,3]diazepine-3-carboxamide]",> 10000 nM
0.343 nM,"COc1ccc(F)cc1C(=O)NCc1ccc(-c2nn3c(c2C(N)=O)Nc2ccc(N4CCN(CC5CCN(c6ccc(N7CCC(=O)NC7=O)cc6)CC5)CC4)cc2CC3)cc1 [Example C3, 7-(4-((1-(4-(2,4-dioxotetrahydropyrimidin-1(2H)-yl)phenyl)piperidin-4-yl)methyl)piperazin-1-yl)-2-(4-((5-fluoro-2-methoxybenzamido)methyl)phenyl)-9,10-dihydro-4H-benzo[d]pyrazolo[1,5-a][1,3]diazepine-3-carboxamide]",> 10000 nM
0.282 nM,"COc1ccc2ccccc2c1C(=O)NCc1ccc(-c2nn3c(c2C(N)=O)Nc2ccc(N4CCN(CC5CCN(c6ccc(N7CCC(=O)NC7=O)cc6)CC5)CC4)cc2CC3)cc1 [Example C4, 7-(4-((1-(4-(2,4-dioxotetrahydropyrimidin-1(2H)-yl)phenyl)piperidin-4-yl)methyl)piperazin-1-yl)-2-(4-((2-methoxy-1-naphthamido)methyl)phenyl)-9,10-dihydro-4H-benzo[d]pyrazolo[1,5-a][1,3]diazepine-3-carboxamide]",> 10000 nM
3.82 nM,"COc1ccccc1C(=O)NC(C)c1ccc(-c2nn3c(c2C(N)=O)Nc2ccc(N4CCN(CC5CCN(c6ccc(N7CCC(=O)NC7=O)cc6)CC5)CC4)cc2CC3)cc1 (stereo not shown) [Example C5, 7-(4-((1-(4-(2,4-dioxotetrahydropyrimidin-1(2H)-yl)phenyl)piperidin-4-yl)methyl)piperazin-1-yl)-2-(4-(1-(2-methoxybenzamido)ethyl)phenyl)-9,10-dihydro-4H-benzo[d]pyrazolo[1,5-a][1,3]diazepine-3-carboxamide]",> 10000 nM
